≈ marks a conversion by molar mass, not a printed value.
settings: buffer; pH 7.4; 200.0 µM

SMILES	solubility kinetic
COc1ccc(Nc2nc(-c3ccccc3O)nc3ccccc23)cc1	< 0.2 µg/mL
CC1Oc2ccccc2N(Cc2cccc(F)c2)C1=O (configuration not stated)	18.6 µg/mL (≈ 68.6 µM)
COc1ccc(-c2nc(N)nc(C(F)(F)F)c2-c2cscn2)c(O)c1	< 0.2 µg/mL
O=c1sc(Nc2ccccc2)nc2ccccc12	6.5 µg/mL (≈ 25.6 µM)
CS(=O)(=O)Nc1ccccc1N=C(c1ccccc1)c1ccccc1	23.2 µg/mL (≈ 66.2 µM)
COc1ccc(C(=O)CSc2cc(C)[nH]c(=O)n2)cc1	23.7 µg/mL (≈ 81.6 µM)
O=C(Nc1ccc(Cl)cn1)c1ccc2nccnc2c1	3.6 µg/mL (≈ 12.6 µM)
CCCN(CCC)C(=O)Nc1cc(Cl)ccc1OC	31.9 µg/mL (≈ 112 µM)
N/C(=N\OC(=O)c1cccc(F)c1)c1cccc([N+](=O)[O-])c1	1.3 µg/mL (≈ 4.29 µM)
O=S(=O)(Nc1nc2ccccc2nc1Cl)c1ccc(F)cc1	> 50.7 µg/mL
COc1cc(NC(=O)c2ccccc2)c(OC)cc1NC(=O)Cc1ccc(C)cc1	< 0.4 µg/mL
CCCCCCCCNc1nc(Cl)nc(NCCN2CCOCC2)n1	0.5 µg/mL (≈ 1.35 µM)
CC(C)(C)CC(=O)Nc1ccc(-c2cn3cccnc3n2)cc1	40.3 µg/mL (≈ 131 µM)
O=C(Nc1ccc(O)cc1)/C(=C\C=C\c1ccccc1)NC(=O)c1ccccc1	14.9 µg/mL (≈ 38.8 µM)
COc1cc(OC)cc(C(=O)NCC(=O)NCc2ccccn2)c1	> 49.4 µg/mL
CC(OC(=O)c1ccco1)C(=O)NC1CCCC1 (configuration not stated)	> 37.7 µg/mL
CN1c2ccsc2C(=O)/C(=C\Nc2cccc(C(F)(F)F)c2)S1(=O)=O	< 0.4 µg/mL
COc1ccccc1C(=O)Nc1ccc(Br)cc1C	< 0.7 µg/mL

SMILES	solubility kinetic
Cc1ccc(-c2c[n+](Cc3ccc(Cl)cc3)c3n2CCC3)cc1.[Cl-]	> 53.9 µg/mL
O=C(COc1ccc(Br)cc1)NC1CC1	> 40.5 µg/mL
COc1ccccc1N1Cc2ccc(OC)c(OC)c2C1=O	> 44.9 µg/mL
C=Cn1c(C(=O)O)ccc1-c1ccc(OC)cc1	> 36.5 µg/mL
CC(C)(C)c1ccc(OCCCCCCN2CCNCC2)cc1	31.9 µg/mL (≈ 100 µM)
CCN1CCCC1CNC(=S)Nc1ccc(C(C)=O)cc1 (configuration not stated)	> 45.8 µg/mL
CCN(CC)c1ccc(NC(=O)CSC(=O)c2ccccc2)cc1.O=S(=O)(O)O	4.1 µg/mL
CCOC(=O)c1ccc(N)cc1	> 24.8 µg/mL
N/C(=N\OC(=O)c1cc([N+](=O)[O-])ccc1Cl)c1ccccn1	11.2 µg/mL (≈ 34.9 µM)
COC(=O)c1ccc(Nc2c([N+](=O)[O-])ccc3nonc23)cc1	< 0.2 µg/mL
Cc1ccc(N2C(=O)CC(N3CCSCC3)C2=O)c(C)c1 (configuration not stated)	> 45.7 µg/mL
COCCn1c(=S)[nH]c2sc3c(c2c1=O)CCCC3	> 44.5 µg/mL
COc1ccc(C=O)cc1Cn1c(C)cc(C)c(C#N)c1=O	0.6 µg/mL (≈ 2.02 µM)
CCOc1ccc(-c2csc3ncn(-c4ccc(OC)cc4)c(=O)c23)cc1	0.4 µg/mL (≈ 1.06 µM)
CC(=O)Nc1ccc(S(=O)(=O)N(CC(=O)NC2CC2)Cc2ccccc2)cc1	> 60.2 µg/mL
CC(C)(C)C1CCC(N2CCN(c3ccccc3)CC2)CC1 (configuration not stated)	0.5 µg/mL (≈ 1.66 µM)
Clc1ccccc1CSc1nncn1-c1cccnc1	> 45.4 µg/mL

More lines, now with the values ahead:

solubility kinetic	SMILES
46.4 µg/mL (≈ 140 µM)	COCCNC(=O)C(=O)Nc1cc2c3c(c1)CCC(=O)N3CCC2
43.3 µg/mL (≈ 145 µM)	COc1ccc(CN2CCCCCC2)cc1Br
52.8 µg/mL (≈ 112 µM)	COc1ccc(N2CCN(C(=O)c3cccc(NS(=O)(=O)c4cccc(F)c4)c3)CC2)cc1
> 78.6 µg/mL	CCCc1cc(=O)[nH]c(SCC(=O)Nc2cc(S(=O)(=O)N3CCOCC3)ccc2N(CC)CC)n1
3.6 µg/mL (≈ 7.94 µM)	CN(c1ccccc1)S(=O)(=O)c1ccc(C(=O)N2CCN(c3ccccc3F)CC2)cc1
6.1 µg/mL (≈ 19.3 µM)	O=C(c1ccc(Cl)cc1[N+](=O)[O-])N1CCc2ccccc2C1
> 59.5 µg/mL	Cc1ccc(CN(C)C(=O)c2cc(S(=O)(=O)N3CCOCC3)ccc2F)o1
> 50.6 µg/mL	Cc1noc(C)c1S(=O)(=O)Nc1ccccc1N1CCOCC1
> 59 µg/mL	NS(=O)(=O)c1ccc(CNC(=O)C2CCCN2C(=O)c2cccs2)cc1 (configuration not stated)
51.9 µg/mL (≈ 139 µM)	O=S(=O)(Nc1cccc(S(=O)(=O)N2CCCC2)c1)c1cccs1
3.6 µg/mL (≈ 12.7 µM)	O=C(c1ccc(F)cc1)c1ccc(N2CCCCC2)cc1
> 52.1 µg/mL	CCOCCCNC(=O)C1CCN(S(=O)(=O)N2CCCC2)CC1
33 µg/mL (≈ 118 µM)	Cc1ccnc(SCC(=O)NC2CCCCCC2)n1
9.2 µg/mL (≈ 27.5 µM)	CC(C)c1ccc(N2C(=O)C(Cl)=C(N3CCOCC3)C2=O)cc1
12 µg/mL (≈ 30.3 µM)	CN(C)c1ccc(S(=O)(=O)N2CCCCC2)cc1NC(=O)C1=COCCO1
0.3 µg/mL (≈ 0.776 µM)	Cn1c(=O)n(C)c2cc(S(=O)(=O)N3CCN(c4ccccc4)CC3)ccc21
5.8 µg/mL (≈ 21.4 µM)	O=C(Nc1ccc(F)c(Cl)c1)N1CCCCCC1
> 44.3 µg/mL	OC(CCN1CCCCC1)c1ccc(-c2ccccc2)cc1 (configuration not stated)
> 63.2 µg/mL	COc1ccc2cc(Br)ccc2c1CC(=O)NCCCN1CCOCC1
> 43.4 µg/mL	CCCC(=O)Nc1nnc(-c2ccc3c(c2)OCCO3)o1
> 38.6 µg/mL	CCn1cc(S(=O)(=O)NC2CCCCC2)cn1
> 45.7 µg/mL	CCN(CCO)c1nc(N2CCCCC2)c2cnn(C)c2n1
